Here are results for one molecule from ChEMBL document CHEMBL1649140, “Accelerated metabolism of voriconazole and its partial reversal by cimetidine” (Antimicrob Agents Chemother, 2009).

Values after ≈ are worked out from the molar mass of the structure shown.

One may read the MIC as the smallest concentration in the dilution series that meets the test's criterion for growth inhibition. Read a low MIC as inhibition by little substance.

Data set [1] is described as follows: Cmin in patient with invasive pulmonary aspergillosis at 9.2 mg/kg, iv administered every 12 hrs measured after 8 days. It counts as ADME, organism-based. Also on record: dose 9.2 mg/kg, route intravenous. The following applies: human, in vivo, read-out: Cmin.
Another data set has as its system Aspergillus ustus. Description: Antifungal activity against Aspergillus ustus. It counts as functional.

As to `C[C@@H](c1ncncc1F)[C@](O)(Cn1cncn1)c1ccc(F)cc1F` [VORICONAZOLE], the concentration at 192 h in data set [1] was found to be 1170 ng/mL. In the data set on Aspergillus ustus, the minimum inhibitory concentration (MIC) amounted to 4 µg/mL (≈ 11.5 µM).
